Assay results as given in PubChem BioAssay AID1671426.
pIC50: −log10 of the molar value.

Molecular target: Proto-oncogene tyrosine-protein kinase Src (Homo sapiens) (UniProt P12931)
Assay: PubChem AID 1671426
Settings: Z'-LYTE FRET kinase activity, recombinant SRC N1

Chain of Proto-oncogene tyrosine-protein kinase Src (Homo sapiens) (P12931 whole entry, looked up): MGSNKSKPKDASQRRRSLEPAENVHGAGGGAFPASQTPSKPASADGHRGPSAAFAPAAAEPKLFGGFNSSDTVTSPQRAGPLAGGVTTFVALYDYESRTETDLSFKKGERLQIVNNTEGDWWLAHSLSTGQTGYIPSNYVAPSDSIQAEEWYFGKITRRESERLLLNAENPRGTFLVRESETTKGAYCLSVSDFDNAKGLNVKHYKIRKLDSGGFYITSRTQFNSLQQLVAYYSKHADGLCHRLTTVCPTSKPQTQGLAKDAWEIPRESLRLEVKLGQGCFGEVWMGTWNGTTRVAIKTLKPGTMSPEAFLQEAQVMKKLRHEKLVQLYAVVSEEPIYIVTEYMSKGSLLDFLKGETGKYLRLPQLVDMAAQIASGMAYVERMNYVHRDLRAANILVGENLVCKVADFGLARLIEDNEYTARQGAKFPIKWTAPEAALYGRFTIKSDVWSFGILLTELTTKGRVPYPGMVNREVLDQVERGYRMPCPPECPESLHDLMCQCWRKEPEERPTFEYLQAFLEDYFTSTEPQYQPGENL

pIC50: 5.70
Structure (SMILES): COc1cc2ncnc(Nc3cccc(Cl)c3)c2cc1OC
